Measurements reported in US11529343B2, “Compositions and methods for identifying and treating dystonia disorders” (DUKE UNIVERSITY, priority 2015, dated 2022).

Columns and labels:
[1] = system: delta-E Torsin1a localization; experiment: Delta-E Torsin1a mislocalization assay (% cells with EGFP puncta, high-content imaging); type: cell-based, human
Procedure: To limit variation in expression levels associated with random integration or transient expression, single copies of either WT or delta-E human TOR1A cDNAs with N-terminal EGFP fusions were inserted at the FRT site in Flp-In™ T-Rex™ 293 cells (Thermo Fisher Scientific #R780-07) via flippase recombinase-mediated cassette exchange according to the manufacturer's recommended protocols.
The cells were maintained at 37° C./5% CO2. All experiments were performed on cells with fewer than 5 passages.
Torsin1a expression was also controlled by tetracycline induction to avoid selective pressure modifying the cellular phenotypes. […] The mutant phenotype was measured as the percentage of cells with one or more EGFP puncta using automated high-content imaging analysis (see infra).
The image analysis algorithm was developed using the Cellomics ArrayScan V CompartmentAnalysisV2 protocol. Hoechst's nuclear staining (Ch1: excitation 350 nm; emission 461 nm) was used for focusing and for cell identification by nuclear size, shape, and intensity. […] Detected cells were gated according to nuclear area, length-to-width ratio, and perimeter-to-area ratio. For the purpose of analysis, cell bodies were defined by a radius of 10 μm from the outer edge of the defined nucleus. Overlapping cells were automatically segmented according to the Cellomics ArrayScanV CompartmentAnalysisV2 object segmentation feature. EGFP fluorescence (Ch2: excitation 488 nm; emission 509 nm) was used for puncta detection. […] Torsin a puncta were identified using the spot detection feature of the Compartmental AnalysisV2 protocol. The percentage of cells containing one or more puncta was used as the primary metric in this assay.
(§1) In order to test this model directly, the delta-E Torsin1a cell line was treated with compounds targeting the eIF2-alpha signaling pathway (FIG. 2). […] The following day, serial drug dilutions were prepared at 2× final concentration in assay media containing 10 μg/mL tetracycline and 30 μL of the drug/tetracycline mixture was added to the appropriate wells, while control wells received 30 μL of assay media alone or assay media+10 μg/mL tetracycline (final tetracycline concentration for all wells except negative controls: 5 μg/mL). Cells were then incubated at 37° C./5% CO^2 for 48 hours and fixed, permeabilized, Hoechst stained, and imaged as described above. The range of the Torsin1a localization effect was normalized to the percentage of cells with puncta in vehicle-treated delta-E cell line as the maximum and that in WT cell line as the minimum (FIG. 2, panels c-h). Cell count and EGFP-Torsin1a expression were normalized to their respective values in the vehicle-treated delta-E cell line as the maximum. All dose response data are the average of 4 independent experiments per dose. Untreated control data used for normalization are the average of 24 independent experiments.

[2] = system: Flp-In T-REx 293 cells inducibly expressing delta-E Torsin1a; experiment: Cytotoxicity (cell count, cellular morphology) in the Torsin1a assay cell line; type: cell-based, human
Procedure: as §1
Efficacy is calculated as the magnitude of the pathology correction relative to the mutant Torsin1a pathology. For example an efficacy=−100% would be equivalent to the WT TorsinA phenotype, and 0% would be equivalent to the Mutant TorsinA phenotype. CCv2 refers to the dose response Curve Class annotation, and AC refers to Active Concentration.

[3] = system: luciferase secretion; experiment: C.Luc. Secretion Assay; type: cell-based; conditions: orthogonal assays
Procedure: We tested each shRNA for its ability to rescue a previously described defect in luciferase secretion. Chen, P. et al. (2010) Hum. Mol. Genet. 19, 3502-15; Cao, S. et al. (2010) Dis. Model Mech. 3, 386-96; Barrows, N. J., et al., (2010) J. Biomol. Screen. 15, 735-47.) DYT1 patient data were obtained from 4 independent patient-derived lines and WT data (black bar) from 3 normal healthy control lines. Each line was tested in 5 independent experiments that included 4 technical replicates each (with the exception of SCD data from 3 independent experiments).
(Cao, S. et al. (2010) Dis. Model. Mech. 3, 386-96.) Subsequent testing of additional HIV protease inhibitors supported the activity of this class of compounds and generated favorable structure-activity relationship (SAR) data from which to design improved compounds (Tables 5 and 6). The results with a subset of compounds were also observed in a Luciferase secretion assay (Tables 5 and 6).

[4] = system: CreP; experiment: Western blot, CreP abundance in EGFP-ΔE Torsin1a expression assay cell line; type: cell-based, human; conditions: increasing concentration
Procedure: (§2) Cells were harvested in RIPA buffer [150 mM NaCl/50 mM NaH2PO4/2 mM EDTA/1% Triton X-100/0.5% SDS/0.5% deoxycholic acid/50 mM NaF/10 mM Na4P2O7/1 mM Na3VO4/1× phosphatase inhibitor cocktail (Sigma #P5726)/1× cOmplete Mini EDTA-free protease inhibitor cocktail (Roche #04693159001)]. Total protein concentrations were assessed by BCA assay (Thermo Fisher Scientific #23225). Proteins were resolved on 4-15% TGX gels (Bio-Rad #5671085), transferred to nitrocellulose membrane, blocked in TBS-T+5% non-fat dry milk, and probed as indicated. (Primary antibodies employed in the examples of the disclosure are presented in Table 4.) ATF4 expression was normalized to […] expression. N=3 independent control cells lines and 4 independent DYT1 cell lines, 3 replicates each.
(§3) Western blot analyses were conducted to determine the effect of Lopinavir on ATF4, CreP, pEIF2-alpha, and β-actin abundance in EGFP-ΔE Torsin1a expression assay cell lines. […] This down regulation of CreP is in keeping with the HIV protease inhibitor mediated CreP regulation. (See De Gassart et al. PNAS 2015.)

[5] = system: pEIF2-alpha; experiment: Western blot, phosphorylation of EIF2-alpha in EGFP-ΔE Torsin1a expression assay cell line; type: cell-based, human; conditions: increasing concentration
Procedure: as §2, §3

[6] = system: ATF4; experiment: Western blot, ATF4 abundance in EGFP-ΔE Torsin1a expression assay cell line; type: cell-based, human; conditions: increasing concentration
Procedure: as §2, §3

Structure (SMILES): Cc1cccc(C)c1OCC(=O)N[C@@H](Cc1ccccc1)[C@@H](O)C[C@H](Cc1ccccc1)NC(=O)[C@H](C(C)C)N1CCCNC1=O [Lopinavir]
- Emax ([1]; Homo sapiens, delta-E Torsin1a assay cell line, read-out: ΔE TorsinA Mislocalization Assay Localization Max Efficacy): 70%
- effect on delta-E Torsin1a localization (cells with puncta), in words ([1]; dose response, delta-E cell line): corrected TorsinA localization in a dose-dependent fashion
- Cytotox Efficacy [2]: −69.87%
- Cytotox Max Resp [2]: −55.19%
- Cytotox CC-v2 (dose response Curve Class) ([2]; curve class per Inglese et al. 2006): −3
- effect on secretory deficits, in words [3]: corrected secretory deficits
- steady state levels of CreP [4]: down-regulation of steady state levels
- steady state levels of CreP ([4]; listed as lopinavir): decreases CReP abundance
- phosphorylation of EIF2-alpha [5]: increases phosphorylation of EIF2-alpha
- ATF4 abundance [6]: increases phosphorylation of EIF2-alpha and ATF4 abundance in a dose dependent manner
